≈ marks a conversion by molar mass, not a printed value.
Experiments:
[1] = biological target: Glycogen synthase kinase-3 beta (Homo sapiens, UniProt P49841); assay: Inhibition of GSK3-beta
[2] = system: Staphylococcus aureus; assay: Antibacterial activity against Staphylococcus aureus Smith; format: ADME, organism-based
[3] = system: Escherichia coli; assay: Antibacterial activity against Escherichia coli ATCC 8739; format: ADME, organism-based

Chain of Glycogen synthase kinase-3 beta (P49841 whole entry): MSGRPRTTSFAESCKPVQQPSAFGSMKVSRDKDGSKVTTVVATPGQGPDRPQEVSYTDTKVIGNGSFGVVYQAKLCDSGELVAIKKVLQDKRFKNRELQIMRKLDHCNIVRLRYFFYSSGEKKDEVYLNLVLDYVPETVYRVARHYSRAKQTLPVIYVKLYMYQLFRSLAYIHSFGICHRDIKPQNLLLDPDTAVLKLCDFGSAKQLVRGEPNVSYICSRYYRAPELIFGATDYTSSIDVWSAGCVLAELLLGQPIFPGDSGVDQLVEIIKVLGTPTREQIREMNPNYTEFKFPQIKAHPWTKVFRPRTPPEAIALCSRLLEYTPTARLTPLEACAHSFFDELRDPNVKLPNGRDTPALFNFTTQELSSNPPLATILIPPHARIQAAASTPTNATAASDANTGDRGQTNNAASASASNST

| Compound | IC50 [1] [nM] | MIC [2] [µM] | MIC [3] [µM] |
| --- | --- | --- | --- |
| C[C@H]1COc2c(NCCCc3ccccc3)c(F)c(N)c3c(=O)c(C#N)cn1c23 | 1.4 | – | – |
| C[C@H]1COc2c(NCCCn3ccnc3)c(F)c(N)c3c(=O)c(C(N)=O)cn1c23 | 180 | > 249 | > 249 |
| C[C@H]1COc2c(NCCCn3ccnc3)c(F)c(N)c3c(=O)c(-c4nnn[nH]4)cn1c23 | 20 | > 257 | > 257 |
| C[C@H]1COc2c(NCCCn3ccnc3)c(F)c(N)c3c(=O)c(C(=O)O)cn1c23 | 150 | 8 (≈ 3.21 µg/mL) | 16 (≈ 6.42 µg/mL) |
| C[C@H]1COc2c(NCCNc3ccccn3)c(F)c(N)c3c(=O)c(C#N)cn1c23 | 0.57 | – | – |
| C[C@H]1COc2c(NCCCn3ccnc3)c(F)c(N)c3c(=O)c(C#N)cn1c23 | 1 | > 306 | > 306 |

The next lines start with the values.

| IC50 [1] [nM] | MIC [2] [µM] | MIC [3] [µM] | Compound |
| --- | --- | --- | --- |
| 33 | > 285 | > 285 | C[C@H]1COc2c(NCCNc3ccccn3)c(F)c(N)c3c(=O)c(C(N)=O)cn1c23 |
| – | 2 (≈ 0.827 µg/mL) | 4 (≈ 1.65 µg/mL) | C[C@H]1COc2c(NCCNc3ccccn3)c(F)c(N)c3c(=O)c(C(=O)O)cn1c23 |
| 140 | – | – | C[C@H]1COc2c(NCCCn3ccnc3)c(F)c(N)c3c(=O)c(C(=N)NO)cn1c23 |
| 71 | – | – | C[C@H]1COc2c(NCCCc3ccccn3)c(F)c(N)c3c(=O)c(C(=N)NO)cn1c23 |
| 40 | 2 (≈ 0.823 µg/mL) | > 39 | C[C@H]1COc2c(NCCCc3ccccc3)c(F)c(N)c3c(=O)c(C(=O)O)cn1c23 |
| 2.4 | 69 (≈ 30.1 µg/mL) | > 274 | C[C@H]1COc2c(NCCCc3ccccn3)c(F)c(N)c3c(=O)c(-c4nnn[nH]4)cn1c23 |
| 67 | 78 (≈ 32 µg/mL) | > 78 | C[C@H]1COc2c(NCCCc3ccccc3)c(F)c(N)c3c(=O)c(C(N)=O)cn1c23 |
